According to paper PMC7671598, “Differences in the efficiency of 3-deazathiamine and oxythiamine pyrophosphates as inhibitors of pyruvate dehydrogenase complex and growth of HeLa cells in vitro” (Journal of Enzyme Inhibition and Medicinal Chemistry, 2020):

Target: T1, pyruvate dehydrogenase complex (PDHC)
T1 construct: gene PDHA1; native mitochondrial complex isolated from porcine heart; with PDHB (E1 beta) and the other subunits of the complex
Assay: spectrophotometric PDHC kinetics at […] nm, Lineweaver-Burk, Ki from the shift of Km for TPP
Type: biochemical, Sus scrofa
Conditions: read-out: Kinetic parameters / Ki

Row | Ki [µM] | Compound
1 | 0.0026 ± 0.0009 | Cc1ncc(Cc2csc(CCOP(=O)(O)OP(=O)(O)O)c2C)c(N)n1 [compound 15, 3-deazathiamine pyrophosphate]
2 | 0.025 ± 0.015 | Cc1ncc(C[n+]2csc(CCOP(=O)(O)OP(=O)(O)O)c2C)c(O)n1 [compound 18, oxythiamine pyrophosphate]
